Measurements from PubChem BioAssay AID2060484 (Molecular Pharmacology Branch, DTP, NCI, 2025).
Several values for one entry are separate records, joined by “and”; a condition that tells them apart may be missing. Equal values may be shown once.

System: SUM149PT spheroids with HUVEC/MSC, viability
Assay: Anticancer human tumor SUM149PT cell line growth inhibition [GQUAD];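 further: spheroids exposed to drugs for seven days before readout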;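 on viability, T/C: percent viability relative to DMSO vehicle control taken as 100%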
Settings: for viability, T/C: stronger effect = lower value; active means viability on the fitted dose curve at most 10% of control; inactive means the rest
From the text: DNA G-quadruplex Stabilizer Agents in Combinations in Complex Spheroids
A high-throughput screen of multi-cell type tumor spheroids was designed to identify active combinations of DNA G-quadruplex stabilizer agents and targeted small molecules. Complex spheroids include a stromal component modeled by human endothelial cells (HUVEC) and fibroblasts modeled by human mesenchymal stem cells (MSCs). The concentration ranges selected for each drug and investigational agent were based upon clinically achievable concentrations if the clinical Cmax of the agent was known.
Compounds. The drugs and investigational agents: pidnarulex (CX-5461; NSC782164), APTO-253 (NSC789042), BRACO-19 (NSC847499), peposertib (NSC802822), ceralasertib (NSC780249), elimusertib (NSC800525), camonsertib (NSC841442), AZD-1390 (NSC803789), olaparib (NSC753686), talazoparib (NSC767125), ART-558 (NSC835418), sotorasib (NSC818433), MRTX-1133 (NSC836407), SN-38 (NSC673596), topotecan (NSC609699), etoposide (NSC141540), doxorubicin (NSC123127), gemcitabine (NSC613327), 5-fluorouracil (NSC19893), paclitaxel (NSC125973), vemurafenib (NSC761431), panobinostat (NSC761190), R-306465 (JNJ-16241199; NSC773264), adavosertib (NSC754352), TP-3654 (NSC805149), carboplatin (NSC241240), KSQ-4279 (NSC840948), and staurosporine (NSC755774) were obtained from the National Cancer Institute (NCI) Developmental Therapeutics Program Chemical Repository (34). The FDA-approved anticancer drug set is available from the NCI Developmental Therapeutics Program. […] The stock solutions were prepared in dimethyl sulfoxide (DMSO, Sigma-Aldrich, St. Louis, MO, cat. D2650) at 800-fold the tested concentration and stored at -70 degrees C prior to their use. All drugs and investigational agents were tested over a range starting from a high concentration at or near the clinical Cmax and decreasing in half-log increments. If the clinical Cmax for an agent had not been determined, the highest concentration tested was 10 microM.
2.3 Cell Culture. All cells were maintained in an incubator at 37 degrees C and 5% CO2 with 95% humidity. The PDC lines were cultured according to standard operating procedures established by the NCI PDMR. All PDCs were thawed and cultured in Matrigel-coated flasks prepared with a working solution of 1X Ham's F-12 nutrient mix, without supplementation (Invitrogen, cat. 11765054), 100 U/mL penicillin-streptomycin (Invitrogen, cat. 15140122), and 2.5% Matrigel (Corning Inc., cat. 354248) for the first three passages. The 857933-349-R-J2-PDC line was cultured in 6C/Colon 1B media, which includes advanced DMEM/F-12 (Thermo Fisher Scientific, cat. 12634028), 10 mM HEPES (Thermo Fisher Scientific, cat. 15630080), 1X GlutaMAX supplement (Thermo Fisher Scientific, cat. 35050061), 0.1 mg/mL primocin (InvivoGen, cat. ant-pm-2), 10% defined fetal bovine serum, heat inactivated (HyClone Laboratories Inc., cat. SH30070.03HI), 50% L-WRN conditioned media (ATCC, cat. CRL-3276), 1.25 mM N-Acetyl-L-cysteine (Sigma-Aldrich, cat. A9165), 10 mM nicotinamide (Sigma-Aldrich, cat. N0636), 1X B-27 supplement (Thermo Fisher Scientific, cat. 17504044), 1X N-2 supplement (Thermo Fisher Scientific, cat. 17502048), 10 microM Y-27632 dihydrochloride (Tocris Bioscience, cat. 1254), and 50 ng/mL human EGF recombinant protein (Thermo Fisher Scientific, cat. PHG0311). The 485176-168-R4-J1-PDC line was cultured in Panc media, which includes all 6C/Colon 1B media components plus 100 ng/mL human FGF-10 (Thermo Fisher Scientific, cat. 100-26), 500 nM SB-431542 (Selleckchem, cat. S1067), and gastrin (Tocris, cat. 3006).
[…]

[1] = curve of first compound, second compound 0.0316 µM
[2] = curve of first compound, second compound 0.1 µM
[3] = curve of first compound, second compound 0.316 µM
[4] = curve of first compound, second compound 1 µM
[5] = curve of first compound, second compound 3.16 µM
[6] = curve of first compound, second compound 10 µM
[7] = second compound 0.0316 µM, first compound 0.0316 µM
[8] = second compound 0.0316 µM, first compound 0.316 µM
[9] = second compound 0.1 µM, first compound 0.0316 µM
[10] = second compound 0.1 µM, first compound 0.316 µM
[11] = second compound 0.316 µM, first compound 0.0316 µM
[12] = second compound 0.316 µM, first compound 0.316 µM
[13] = second compound 1 µM, first compound 0.0316 µM
[14] = second compound 1 µM, first compound 0.316 µM
[15] = second compound 3.16 µM, first compound 0.0316 µM
[16] = second compound 3.16 µM, first compound 0.316 µM
[17] = second compound 10 µM, first compound 0.0316 µM
[18] = second compound 10 µM, first compound 0.316 µM

Cc1[nH]c2ccccc2c1CCNCc1ccc(/C=C/C(=O)NO)cc1 + Cc1cnc(CNC(=O)c2c(=O)c3ccc(N4CCCN(C)CC4)nc3n3c2sc2ccccc23)cn1
active: viability, T/C (second compound 10 µM, first compound 0.000999 µM) 0.24% | viability, T/C (second compound 10 µM, first compound 0.00316 µM) 1.67% | viability, T/C (second compound 10 µM, first compound 0.00999 µM) 9.84% | viability, T/C [17] 10.1% | viability, T/C (second compound 10 µM, first compound 0.0999 µM) 2.55% | viability, T/C [18] 2%
< 0.999 nM: IC50 [4] | IC50 [5] | IC50 [6]
100 nM: IC50 [2]
inactive: viability, T/C (second compound 0.0316 µM, first compound 0.000999 µM) 106% | viability, T/C (second compound 0.0316 µM, first compound 0.00316 µM) 86.2% | viability, T/C (second compound 0.0316 µM, first compound 0.00999 µM) 90% | viability, T/C [7] 89.5% | viability, T/C (second compound 0.0316 µM, first compound 0.0999 µM) 56% | viability, T/C [8] 29.8% | viability, T/C (second compound 0.1 µM, first compound 0.000999 µM) 66.2% | viability, T/C (second compound 0.1 µM, first compound 0.00316 µM) 62.1% | viability, T/C (second compound 0.1 µM, first compound 0.00999 µM) 67.7% | viability, T/C [9] 65.2% | viability, T/C (second compound 0.1 µM, first compound 0.0999 µM) 50.1% | viability, T/C [10] 26.9% | viability, T/C (second compound 0.316 µM, first compound 0.000999 µM) 54.2% | viability, T/C (second compound 0.316 µM, first compound 0.00316 µM) 55.2% | viability, T/C (second compound 0.316 µM, first compound 0.00999 µM) 55.3% | viability, T/C [11] 54.9% | viability, T/C (second compound 0.316 µM, first compound 0.0999 µM) 45.7% | viability, T/C [12] 25% | viability, T/C (second compound 1 µM, first compound 0.000999 µM) 51.1% | viability, T/C (second compound 1 µM, first compound 0.00316 µM) 43.2% | viability, T/C (second compound 1 µM, first compound 0.00999 µM) 48.5% | viability, T/C [13] 47.7% | viability, T/C (second compound 1 µM, first compound 0.0999 µM) 46.2% | viability, T/C [14] 20.2% | viability, T/C (second compound 3.16 µM, first compound 0.000999 µM) 39.1% | viability, T/C (second compound 3.16 µM, first compound 0.00316 µM) 40.3% | viability, T/C (second compound 3.16 µM, first compound 0.00999 µM) 39.1% | viability, T/C [15] 42.6% | viability, T/C (second compound 3.16 µM, first compound 0.0999 µM) 37.9% | viability, T/C [16] 17.8%
131 nM: IC50 [1]
56 nM: IC50 [3]

CC(C)n1c(=O)n(C)c2cnc3cc(F)c(-c4ccc(OCCCN5CCCCC5)nc4)cc3c21 + Cc1[nH]c2ccc(F)cc2c1-c1nc2c3cccnc3c3ncccc3c2[nH]1
> 10000 nM: IC50 [1] | IC50 [2] | IC50 [3] | IC50 [4] | IC50 [5] | IC50 [6]
inactive: viability, T/C [7] 86.3% | viability, T/C (second compound 0.0316 µM, first compound 0.1 µM) 80.9% | viability, T/C [8] 104% | viability, T/C (second compound 0.0316 µM, first compound 1 µM) 96.4% | viability, T/C (second compound 0.0316 µM, first compound 3.16 µM) 98.1% | viability, T/C (second compound 0.0316 µM, first compound 10 µM) 67.7% | viability, T/C [9] 97.8% | viability, T/C (second compound 0.1 µM, first compound 0.1 µM) 90.8% | viability, T/C [10] 88% | viability, T/C (second compound 0.1 µM, first compound 1 µM) 101% | viability, T/C (second compound 0.1 µM, first compound 3.16 µM) 98.5% | viability, T/C (second compound 0.1 µM, first compound 10 µM) 73% | viability, T/C [11] 99.3% | viability, T/C (second compound 0.316 µM, first compound 0.1 µM) 91.3% | viability, T/C [12] 95% | viability, T/C (second compound 0.316 µM, first compound 1 µM) 103% | viability, T/C (second compound 0.316 µM, first compound 3.16 µM) 93.8% | viability, T/C (second compound 0.316 µM, first compound 10 µM) 73.2% | viability, T/C [13] 94.8% | viability, T/C (second compound 1 µM, first compound 0.1 µM) 96.4% | viability, T/C [14] 95.7% | viability, T/C (second compound 1 µM, first compound 1 µM) 97.5% | viability, T/C (second compound 1 µM, first compound 3.16 µM) 105% | viability, T/C (second compound 1 µM, first compound 10 µM) 69.4% | viability, T/C [15] 89.9% | viability, T/C (second compound 3.16 µM, first compound 0.1 µM) 91.5% | viability, T/C [16] 97.5% | viability, T/C (second compound 3.16 µM, first compound 1 µM) 92.5% | viability, T/C (second compound 3.16 µM, first compound 3.16 µM) 99.8% | viability, T/C (second compound 3.16 µM, first compound 10 µM) 64.3% | viability, T/C [17] 94.5% | viability, T/C (second compound 10 µM, first compound 0.1 µM) 77.6% | viability, T/C [18] 89% | viability, T/C (second compound 10 µM, first compound 1 µM) 92.5% | viability, T/C (second compound 10 µM, first compound 3.16 µM) 94.8% | viability, T/C (second compound 10 µM, first compound 10 µM) 62.5%

CC(=O)O[C@H]1C(=O)[C@@]2(C)[C@H]([C@H](OC(=O)c3ccccc3)[C@]3(O)C[C@H](OC(=O)[C@H](O)[C@@H](NC(=O)c4ccccc4)c4ccccc4)C(C)=C1C3(C)C)[C@]1(OC(C)=O)CO[C@@H]1C[C@@H]2O
< 31.6 nM: IC50 (curve of compound)
inactive: viability, T/C (compound 0.0316 µM) 29.9% and 31.4% and 22.4% | viability, T/C (compound 0.1 µM) 25.7% and 26.3% and 18.2% | viability, T/C (compound 0.316 µM) 25.7% and 20.8% and 15.6% | viability, T/C (compound 1 µM) 22.3% and 19.5% and 11.7% | viability, T/C (compound 3.16 µM) 22.6% and 20.4% and 11% | viability, T/C (compound 10 µM) 26.4% and 22.7% and 16.2%

C#Cc1c(F)ccc2cc(O)cc(-c3ncc4c(N5CC6CCC(C5)N6)nc(OCC56CCCN5CC(F)C6)nc4c3F)c12 (configuration not stated)
inactive: viability, T/C (compound 0.0316 µM) 92.8% and 104% and 99.7% | viability, T/C (compound 0.1 µM) 74.4% and 90.1% and 92.7% | viability, T/C (compound 0.316 µM) 58.9% and 82.1% and 77.1% | viability, T/C (compound 1 µM) 40.6% and 62.5% and 67.6% | viability, T/C (compound 3.16 µM) 37.8% and 70.5% and 53.1% | viability, T/C (compound 10 µM) 30.2% and 42.8% and 41.5%
